Measured values: PMC5812247, “Engineering thermal stability and solvent tolerance of the soluble quinoprotein PedE from Pseudomonas putida KT2440 with a heterologous whole‐cell screening approach” (Microbial Biotechnology, 2017)

Molecular target: T1, PedE (Pseudomonas putida, UniProt Q88JH5)
T1 construct: C-terminal 6xHis tag, expressed in E. coli BL21(DE3), purified by IMAC, PQQ/Ca2+-dependent periplasmic enzyme
T1 sequence (Q88JH5 34-631): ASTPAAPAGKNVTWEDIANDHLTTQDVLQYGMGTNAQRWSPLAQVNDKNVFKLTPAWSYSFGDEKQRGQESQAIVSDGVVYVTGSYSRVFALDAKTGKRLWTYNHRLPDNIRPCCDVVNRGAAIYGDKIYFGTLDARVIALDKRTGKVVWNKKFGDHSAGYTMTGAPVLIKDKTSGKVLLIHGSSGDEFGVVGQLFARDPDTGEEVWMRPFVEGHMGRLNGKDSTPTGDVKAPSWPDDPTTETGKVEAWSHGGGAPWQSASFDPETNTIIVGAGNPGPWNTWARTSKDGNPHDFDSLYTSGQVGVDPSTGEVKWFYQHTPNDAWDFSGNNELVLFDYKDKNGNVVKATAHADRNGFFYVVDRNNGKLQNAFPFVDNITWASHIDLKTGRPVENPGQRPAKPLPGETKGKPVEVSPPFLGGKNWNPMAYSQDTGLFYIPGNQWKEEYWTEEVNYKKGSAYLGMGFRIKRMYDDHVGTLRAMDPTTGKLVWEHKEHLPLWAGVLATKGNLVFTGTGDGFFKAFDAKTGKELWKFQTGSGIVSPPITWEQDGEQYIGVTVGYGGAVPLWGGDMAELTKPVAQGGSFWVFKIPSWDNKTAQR
Assay: residual activity after […] h at […]°C, apo vs PQQ/CaCl2-reconstituted enzyme
Assay type: biochemical
Details: reconstitution with 10 μM PQQ and 10 mM CaCl2, Tris pH 7.5; ethanol 10 mM as substrate

O=C(O)c1cc(C(=O)O)c2c(n1)C(=O)C(=O)c1cc(C(=O)O)[nH]c1-2 [PQQ]
residual activity after 1 h at 45°C, apo vs PQQ/CaCl2-reconstituted enzyme: purified apo‐form of PedE is much less thermostable compared with the PQQ reconstituted form
